Experimental data: ChEMBL document CHEMBL1201862, “PubChem BioAssay data set” (2004)
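Growth conditions: 96-well plates. Treatment: test compound, 48 hours, 5 concentrations. Analysis: linear interpolation between bracketing concentrations; unreached endpoints set to highest concentration. GI50 marks 50% less growth.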 Calls of active or inactive are those of the source. Rule as the data show it: active = GI50 up to about 1.1 µM and inactive = higher.

Legend:
Assay in all cases: inhibition of tumour cell growth, NCI panel, 48 h
RPMI-8226 = test system: RPMI-8226
HOP-62 = test system: HOP-62
COLO 205 = test system: COLO 205
OVCAR-8 = test system: OVCAR-8
TK-10 = test system: TK-10
M14 = test system: M14
SF-295 = test system: SF-295
IGROV-1 = test system: IGROV-1
CAKI-1 = test system: CAKI-1
SK-MEL-2 = test system: SK-MEL-2
HCT-15 = test system: HCT-15
HOP-92 = test system: HOP-92
HCC 2998 = test system: HCC 2998
SK-MEL-5 = test system: SK-MEL-5
RXF 393 = test system: RXF 393
KM12 = test system: KM12
HT-29 = test system: HT-29
EKVX = test system: EKVX

Compound | GI50 (RPMI-8226) | GI50 (HOP-62) | GI50 (COLO 205) | GI50 (OVCAR-8) | GI50 (TK-10) | GI50 (M14) | GI50 (SF-295) | GI50 (IGROV-1) | GI50 (CAKI-1) | GI50 (SK-MEL-2) | GI50 (HCT-15) | GI50 (HOP-92) | GI50 (HCC 2998) | GI50 (SK-MEL-5) | GI50 (RXF 393) | GI50 (KM12) | GI50 (HT-29) | GI50 (EKVX)
BrC12c3ccccc3Sc3ccccc3C1(Br)c1ccccc12 (stereo unspecified) | 13.5 µM (inactive) | 19.5 µM (inactive) | 28.8 µM (inactive) | 32.1 µM (inactive) | 35.6 µM (inactive) | 15.2 µM (inactive) | 23.7 µM (inactive) | 27 µM (inactive) | 26.1 µM (inactive) | 15.8 µM (inactive) | 17.8 µM | 19.8 µM (inactive) | 28.8 µM (inactive) | 16.2 µM (inactive) | 34.2 µM (inactive) | 19.9 µM (inactive) | 34.8 µM (inactive) | –
CC(C)=CCC/C(=C/CC/C(C)=C/CCc1ccoc1)C(=O)O | – | > 100 µM (inactive) | > 100 µM (inactive) | > 100 µM (inactive) | – | > 100 µM (inactive) | > 100 µM (inactive) | – | – | > 100 µM (inactive) | > 100 µM | > 100 µM (inactive) | > 100 µM (inactive) | > 100 µM (inactive) | > 100 µM (inactive) | > 100 µM (inactive) | > 100 µM (inactive) | > 100 µM (inactive)
Cc1c(Cl)cccc1NC(=O)C(=O)C1C(=O)NC(=O)NC1=O | > 100 µM (inactive) | > 100 µM (inactive) | > 100 µM (inactive) | > 100 µM (inactive) | > 100 µM (inactive) | > 100 µM (inactive) | > 100 µM (inactive) | > 100 µM (inactive) | > 100 µM (inactive) | > 100 µM (inactive) | > 100 µM | > 100 µM (inactive) | > 100 µM (inactive) | > 100 µM (inactive) | > 100 µM (inactive) | > 100 µM (inactive) | > 100 µM (inactive) | > 100 µM (inactive)
O=C1C[C@@H]2CCCC[C@@H]2C12SCCS2 | > 100 µM (inactive) | > 100 µM (inactive) | > 100 µM (inactive) | > 100 µM (inactive) | > 100 µM (inactive) | – | > 100 µM (inactive) | > 100 µM (inactive) | > 100 µM (inactive) | > 100 µM (inactive) | > 100 µM | – | > 100 µM (inactive) | 92.5 µM (inactive) | 54.2 µM (inactive) | > 100 µM (inactive) | – | > 100 µM (inactive)
CCSc1c2ccccc2c(-c2nc(F)nc(F)n2)n1CCc1ccccc1 | > 100 µM (inactive) | > 100 µM (inactive) | > 100 µM (inactive) | – | > 100 µM (inactive) | > 100 µM (inactive) | > 100 µM (inactive) | – | > 100 µM (inactive) | > 100 µM (inactive) | > 100 µM | > 100 µM (inactive) | > 100 µM (inactive) | – | > 100 µM (inactive) | > 100 µM (inactive) | > 100 µM (inactive) | > 100 µM (inactive)
COCC12CC(CC1=O)C1C2ON2c3ccccc3C(=O)C12c1ccccc1 (stereo unspecified) | 40.7 µM (inactive) | > 100 µM (inactive) | > 100 µM (inactive) | > 100 µM (inactive) | – | > 100 µM (inactive) | > 100 µM (inactive) | > 100 µM (inactive) | – | – | > 100 µM | > 100 µM (inactive) | > 100 µM (inactive) | > 100 µM (inactive) | 33.3 µM (inactive) | – | > 100 µM (inactive) | > 100 µM (inactive)
CN1CCC(CN2c3ccccc3Sc3ccccc32)CC1 | 12.7 µM (inactive) | 18 µM (inactive) | 14.1 µM (inactive) | 17.5 µM (inactive) | 15.7 µM (inactive) | 13 µM (inactive) | 15.8 µM (inactive) | 16.7 µM (inactive) | 4.93 µM (inactive) | 17.1 µM (inactive) | 18.5 µM | 5.69 µM (inactive) | 12.9 µM (inactive) | 7.19 µM (inactive) | 3.07 µM (inactive) | 16 µM (inactive) | 12.7 µM (inactive) | 14.4 µM (inactive)
COCCNC(=O)C1C(=O)N(CCOC)C(=O)/C1=N/N (stereo unspecified) | > 100 µM (inactive) | – | – | – | > 100 µM (inactive) | > 100 µM (inactive) | > 100 µM (inactive) | > 100 µM (inactive) | > 100 µM (inactive) | > 100 µM (inactive) | > 100 µM | > 100 µM (inactive) | – | – | – | > 100 µM (inactive) | > 100 µM (inactive) | > 100 µM (inactive)
O=c1[nH]nc2ccccc2c1Cl | 3.13 µM (inactive) | 21 µM (inactive) | 11.4 µM (inactive) | 21.2 µM (inactive) | 18 µM (inactive) | 12.3 µM (inactive) | 20.5 µM (inactive) | 12.6 µM (inactive) | 3.18 µM (inactive) | 17.3 µM (inactive) | 6.41 µM | 3.08 µM (inactive) | 1.52 µM (inactive) | > 10 µM (inactive) | – | 9.44 µM (inactive) | 6.68 µM (inactive) | 4.29 µM (inactive)
COC1C2C[C@@H](O)CCC2C(C(=O)OCCl)C[C@H]1O (stereo partly specified) | > 100 µM (inactive) | > 100 µM (inactive) | > 100 µM (inactive) | > 100 µM (inactive) | > 100 µM (inactive) | > 100 µM (inactive) | – | > 100 µM (inactive) | > 100 µM (inactive) | > 100 µM (inactive) | > 100 µM | – | > 100 µM (inactive) | > 100 µM (inactive) | > 100 µM (inactive) | > 100 µM (inactive) | – | –
c1csc(C[N+]23CN4CN(CN(C4)C2)C3)c1 | 18.9 µM (inactive) | 21.4 µM (inactive) | 20 µM (inactive) | 28.2 µM (inactive) | 26.4 µM (inactive) | 17 µM (inactive) | > 100 µM (inactive) | 29.9 µM (inactive) | 25.8 µM (inactive) | 19.7 µM (inactive) | 28.2 µM | 22.7 µM (inactive) | 19.3 µM (inactive) | 19.3 µM (inactive) | – | > 100 µM (inactive) | > 100 µM (inactive) | –
COc1cccc2c1C(=O)C1(O)CCCCC21 (stereo unspecified) | > 100 µM (inactive) | > 100 µM (inactive) | > 100 µM (inactive) | > 100 µM (inactive) | > 100 µM (inactive) | > 100 µM (inactive) | > 100 µM (inactive) | > 100 µM (inactive) | > 100 µM (inactive) | > 100 µM (inactive) | > 100 µM | – | > 100 µM (inactive) | > 100 µM (inactive) | > 100 µM (inactive) | > 100 µM (inactive) | > 100 µM (inactive) | –
Cc1ccc(N2C[N+](c3ccccc3)=NC(c3ccccc3)=N2)cc1 | 33 µM (inactive) | > 100 µM (inactive) | 31.8 µM (inactive) | 48.1 µM (inactive) | > 100 µM (inactive) | – | 61.7 µM (inactive) | 48.4 µM (inactive) | – | – | 48.1 µM | – | 48.3 µM (inactive) | 23.9 µM (inactive) | 80.2 µM (inactive) | 67.6 µM (inactive) | 39.3 µM (inactive) | 32.4 µM (inactive)
N#Cc1cccc(N2C(=O)c3c(c(-c4ccccc4)c(-c4ccc(Sc5ccc(-c6c(-c7ccccc7)c7c(c(-c8ccccc8)c6-c6ccccc6)C(=O)N(c6cccc(C#N)c6)C7=O)cc5)cc4)c(-c4ccccc4)c3-c3ccccc3)C2=O)c1 | > 100 µM (inactive) | 89.3 µM (inactive) | > 100 µM (inactive) | 45.9 µM (inactive) | 51.8 µM (inactive) | > 100 µM (inactive) | > 100 µM (inactive) | 28.8 µM (inactive) | – | > 100 µM (inactive) | 43.8 µM | 3.92 µM (inactive) | > 100 µM (inactive) | 77.6 µM (inactive) | 16.9 µM (inactive) | > 100 µM (inactive) | > 100 µM (inactive) | 35.8 µM (inactive)
CCOC(=O)N1CCC(=O)C[C@@H]1C/C=C/P1(=O)O[C@H](c2ccccc2)C(C)N1C(C)C (stereo partly specified) | > 100 µM (inactive) | – | – | > 100 µM (inactive) | > 100 µM (inactive) | – | > 100 µM (inactive) | > 100 µM (inactive) | > 100 µM (inactive) | > 100 µM (inactive) | > 100 µM | > 100 µM (inactive) | > 100 µM (inactive) | > 100 µM (inactive) | > 100 µM (inactive) | > 100 µM (inactive) | > 100 µM (inactive) | > 100 µM (inactive)
CS/C(C)=N/OC(=O)NCCCCNc1ccc(N=[N+]=[N-])cc1 | 18.4 µM (inactive) | 48.2 µM (inactive) | 36.1 µM (inactive) | 47.9 µM (inactive) | 33.3 µM (inactive) | 37.7 µM (inactive) | 28.5 µM (inactive) | 87.3 µM (inactive) | 36.5 µM (inactive) | – | 36.9 µM | 55.3 µM (inactive) | 23.9 µM (inactive) | 16.7 µM (inactive) | 46 µM (inactive) | 29.5 µM (inactive) | 46.2 µM (inactive) | 45.4 µM (inactive)
NC1=NC(Cn2nc(-c3ccccc3)c3ccccc3c2=O)=NNC(=O)N1 | > 100 µM (inactive) | > 100 µM (inactive) | > 100 µM (inactive) | > 100 µM (inactive) | > 100 µM (inactive) | > 100 µM (inactive) | > 100 µM (inactive) | > 100 µM (inactive) | > 100 µM (inactive) | > 100 µM (inactive) | > 100 µM | > 100 µM (inactive) | > 100 µM (inactive) | > 100 µM (inactive) | – | > 100 µM (inactive) | > 100 µM (inactive) | –
CC(C)c1ccc2c(c1)CCC1C(C)(C)[C@@H](O)CC[C@]21C (stereo partly specified) | 21.2 µM (inactive) | 19.3 µM (inactive) | 18.6 µM (inactive) | 36.4 µM (inactive) | 54 µM (inactive) | 27.9 µM (inactive) | 18.3 µM (inactive) | > 100 µM (inactive) | 50.1 µM (inactive) | – | 32.7 µM | 23.5 µM (inactive) | 24.8 µM (inactive) | 17.3 µM (inactive) | 21.1 µM (inactive) | 22.3 µM (inactive) | 16.3 µM (inactive) | –
